The experiment deals with HL-1 cells. Briefly: Nanopillar electrode intracellular recording of HL-1 action potentials after electroporation, before and after ion-channel drug. In kind it is cell-based, mouse. The note with it: for APD50 after drug: 10 min incubation, 4 different HL-1 cells in 3 cultures, same cell recorded before and after drug; for APD50 change (%): APD50 after drug versus before drug on the same HL-1 cell. The protocol: The HL-1 cardiomyocyte cell line was obtained from the laboratory of William C. Claycomb at Louisiana State University. Before plating, the nanopillar electrode device was cleaned with detergent and deionized water, followed by 5 minutes of oxygen plasma treatment. The culture chamber was coated with 5 Δg ml^−1 fibronectin in 0.02% gelatin solution overnight to facilitate cell attachment (Claycomb et al. (1998) Proc. Natl. Acad. Sci. USA 95:2979-2984). HL-1 cells were then plated inside the chamber at a density of ˜1×10^5 cm^−2 and were maintained in the Claycomb medium supplemented with 10% fetal bovine serum, 0.1 mM norepinephrine, 2 mM L-glutamine and 100 U ml^−1 penicillin and 100 Δg ml^−1 streptomycin. The cells were maintained in a standard incubator at 37° C. and 5% CO2. Medium was changed every 24 hours. […] Fluorescent imaging of calcein dye was performed with a 470 nm excitation filter and a 525 nm emission filter.
A 60-channel voltage amplifier system (Multichannel System, MEA1060) was used to record HL-1 cells cultured on the nanopillar electrode arrays (nine nanopillars per array) after the cells started beating. Recording was performed in the same culture medium at 37° C. with an Ag/AgCl electrode in the medium as the reference electrode. The amplification was typically 110× for intracellular recording or 1,100× for extracellular recording, and the sampling rate was 5-20 kHz. The signal was filtered with a band-pass of 1 Hz-5 kHz. For electroporation, 20 biphasic pulses of 2.5 Vamp were applied to a nanopillar electrode in a total time of 1 second. The recording system was blanked during the electroporation period. Electrophysiology recordings were resumed 20-40 seconds after electroporation to avoid amplifier saturation.
For control experiments, we electroporated the cells to record action potentials in the absence of drugs. After the cells had recovered for a few hours, nifedipine or tetraethyl-ammonium of different concentrations was added to the culture medium and the cultures incubated for 10 minutes. Subsequently, another electroporation was applied to record the action potentials of the drug-treated cells.

Setting [1] is: 10 mM tetraethylammonium, HL-1 cells, versus control recording without drug (FIG. 5).

Structures are written as SMILES. Several values for one entry are separate records, joined by “and”; a condition that tells them apart may be missing. Equal entries are not always repeated.

In the case of `COC(=O)C1=C(C)NC(C)=C(C(=O)OC)C1c1ccccc1[N+](=O)[O-]` [nifedipine], under “100 nM nifedepine”, the APD50 after drug is 41.52 ms and 43.40 ms and 40.92 ms and 33.39 ms; the “APD50 change (%)” value was 93.8% and 93.6% and 94.0% and 92.9%.

Regarding `CC[N+](CC)(CC)CC` [tetraethylammonium], where the note is “1 mM tetraethylammonium”, the APD50 after drug is 50.54 ms and 45.74 ms and 48.78 ms and 54.93 ms; the “APD50 change (%)” value is 109.9% and 110.5% and 111.1% and 109.8%. In addition, under setting [1], the APD50 result is “increasing APD50” and the action potential period entry is given as “decreasing the period”. Moreover, the “APD50 relative to the control” value (FIG. 5c, four different HL-1 cells on three different cultures per drug) is “increase”.

Source of the values: US9724506B2, “Nanopillar electrode devices and methods of recording action potentials” (The Board of Trustees of the Leland Stanford Junior …, priority 2013, dated 2017).
